# Laboratory results taken from ChEMBL document CHEMBL4823254, “Tetrahydroquinoline-Capped Histone Deacetylase 6 Inhibitor SW-101 Ameliorates Pathological Phenotypes in a Charcot-Marie-Tooth Type 2A Mouse Model” (J Med Chem, 2021).
# Calls of active or inactive are those of the source. The calls are words filed in the database; no cut-off is given here.
# Experiments:
# [1] = Genotoxicity in Salmonella typhimurium TA100 at 5 to 100 uM in absence of liver S9 fraction by Ames test; assay type: toxicity; details: salmonella enterica subsp. enterica serovar typhimurium, s9, 100 µM; dose 5-100 µM
# [2] = molecular target: T1, Protein deacetylase HDAC6 (Mus musculus) (UniProt Q9Z2V5); experiment: In vivo inhibition of HDAC6 in wild type mouse assessed as increase in alpha-tubulin acetylation in sciatic nerve tissue at 10 to 20 mg/kg, ip measured after 24 hrs by immunoblot analysis; assay type: functional, organism-based; details: dose 10-20 mg/kg
# T1 sequence (whole entry): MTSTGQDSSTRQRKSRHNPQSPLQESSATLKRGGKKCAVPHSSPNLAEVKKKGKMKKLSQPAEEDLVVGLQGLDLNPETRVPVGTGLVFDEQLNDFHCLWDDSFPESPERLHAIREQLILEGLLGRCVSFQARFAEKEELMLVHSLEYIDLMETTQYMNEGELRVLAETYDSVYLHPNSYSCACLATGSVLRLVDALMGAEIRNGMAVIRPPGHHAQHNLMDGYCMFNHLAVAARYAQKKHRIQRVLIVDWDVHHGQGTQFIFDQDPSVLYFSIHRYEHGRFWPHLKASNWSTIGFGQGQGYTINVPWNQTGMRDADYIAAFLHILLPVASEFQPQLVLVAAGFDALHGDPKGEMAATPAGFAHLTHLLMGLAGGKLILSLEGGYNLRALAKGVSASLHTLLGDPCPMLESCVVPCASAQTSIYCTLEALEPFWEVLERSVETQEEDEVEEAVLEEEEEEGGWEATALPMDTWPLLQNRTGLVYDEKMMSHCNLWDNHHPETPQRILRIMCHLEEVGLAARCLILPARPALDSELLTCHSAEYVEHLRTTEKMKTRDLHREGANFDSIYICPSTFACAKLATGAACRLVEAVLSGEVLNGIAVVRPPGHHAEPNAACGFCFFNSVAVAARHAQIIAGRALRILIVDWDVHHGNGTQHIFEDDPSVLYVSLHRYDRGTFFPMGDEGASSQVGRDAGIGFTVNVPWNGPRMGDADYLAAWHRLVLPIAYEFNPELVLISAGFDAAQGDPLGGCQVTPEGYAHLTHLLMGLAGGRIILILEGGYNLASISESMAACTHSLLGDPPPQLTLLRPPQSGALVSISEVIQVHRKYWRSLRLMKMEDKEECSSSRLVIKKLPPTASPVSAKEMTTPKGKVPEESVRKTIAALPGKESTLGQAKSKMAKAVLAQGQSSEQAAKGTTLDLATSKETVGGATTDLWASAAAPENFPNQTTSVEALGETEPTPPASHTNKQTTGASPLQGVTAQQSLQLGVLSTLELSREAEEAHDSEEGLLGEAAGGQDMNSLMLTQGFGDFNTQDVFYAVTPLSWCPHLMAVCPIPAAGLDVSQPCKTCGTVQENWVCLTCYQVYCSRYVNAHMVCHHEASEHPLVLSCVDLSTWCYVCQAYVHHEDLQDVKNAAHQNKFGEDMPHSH
# [3] = Half life in human plasma; assay type: ADME, cell-free
# Mus musculus = experiment: Neuroprotective activity in hMFN2-induced CMT2A transgenic mouse model assessed as assessed as latency to fall at 20 mg/kg, ip qd administered for 26 weeks when treated prior with compound dissolved in PBS/PEG400/Tween80/EtOH (50/35/10/5) wt% as vehicle by rotarod test; assay type: functional, organism-based
# [4] = Tmax in C57BL/6J mouse brain at 15 mg/kg, ip; assay type: ADME, organism-based
# [5] = Protein binding in mouse plasma; assay type: ADME, cell-free; details: read-out: PPB (converted)
# [6] = Protein binding in human plasma; assay type: ADME, cell-free; details: read-out: PPB (converted)
# Histone deacetylase 9 = Histone deacetylase 9 (Homo sapiens, UniProt Q9UKV0); experiment: Inhibition of recombinant human HDAC9 using Boc-Lys(TFA)-AMC as substrate preincubated for 10 mins followed by substrate addition and measured after 30 mins by fluorescence-based assay
# [7] = molecular target: T2, Protein deacetylase HDAC6 (Homo sapiens, UniProt Q9UBN7)
# T2 sequence (Q9UBN7 whole entry): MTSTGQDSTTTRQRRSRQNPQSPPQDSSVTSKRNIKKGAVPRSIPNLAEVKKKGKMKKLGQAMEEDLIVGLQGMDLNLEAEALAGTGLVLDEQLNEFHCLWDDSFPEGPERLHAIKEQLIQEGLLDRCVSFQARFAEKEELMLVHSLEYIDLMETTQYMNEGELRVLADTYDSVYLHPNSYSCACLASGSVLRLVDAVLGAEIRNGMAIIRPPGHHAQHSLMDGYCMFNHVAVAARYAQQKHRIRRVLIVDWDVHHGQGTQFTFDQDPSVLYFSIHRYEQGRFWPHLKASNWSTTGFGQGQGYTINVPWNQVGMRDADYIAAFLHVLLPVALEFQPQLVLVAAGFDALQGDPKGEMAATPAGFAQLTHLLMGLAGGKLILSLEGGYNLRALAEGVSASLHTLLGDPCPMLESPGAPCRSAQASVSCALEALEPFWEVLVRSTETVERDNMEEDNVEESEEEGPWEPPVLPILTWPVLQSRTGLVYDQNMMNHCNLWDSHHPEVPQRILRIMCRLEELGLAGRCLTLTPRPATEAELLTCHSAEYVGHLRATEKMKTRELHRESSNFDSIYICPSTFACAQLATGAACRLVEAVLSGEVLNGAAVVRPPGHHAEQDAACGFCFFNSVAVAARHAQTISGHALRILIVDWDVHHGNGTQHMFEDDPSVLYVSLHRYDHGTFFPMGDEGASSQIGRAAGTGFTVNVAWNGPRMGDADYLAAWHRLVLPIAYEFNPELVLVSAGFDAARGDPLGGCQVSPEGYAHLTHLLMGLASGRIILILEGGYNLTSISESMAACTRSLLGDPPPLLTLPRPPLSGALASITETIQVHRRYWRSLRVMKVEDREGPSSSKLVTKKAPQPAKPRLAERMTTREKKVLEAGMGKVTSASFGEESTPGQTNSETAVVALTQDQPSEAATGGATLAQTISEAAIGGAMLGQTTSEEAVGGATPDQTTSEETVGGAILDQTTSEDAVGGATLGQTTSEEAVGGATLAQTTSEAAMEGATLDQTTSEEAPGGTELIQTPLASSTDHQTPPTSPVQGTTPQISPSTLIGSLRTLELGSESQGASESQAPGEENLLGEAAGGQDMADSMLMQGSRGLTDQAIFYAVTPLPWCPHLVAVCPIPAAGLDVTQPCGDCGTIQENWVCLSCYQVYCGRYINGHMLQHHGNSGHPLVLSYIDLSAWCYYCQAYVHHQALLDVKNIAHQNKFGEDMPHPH
# Description: Inhibition of Nanoluc-fused HDAC6 CD2 (unknown origin) expressed in HEK293 cells incubated for 2 hrs by NANOBRET assay
# [8] = Half life in CD1 mouse pooled liver microsomes assessed as parent compound remaining measured up to 60 mins in presence of NADPH by LC-MS/MS analysis; assay type: ADME, Microsome; details: CD1, mouse, pooled liver microsomes
# [9] = Stability in CD1 mouse pooled liver microsomes assessed as parent compound remaining measured at 60 mins in presence of NADPH by LC-MS/MS analysis; assay type: ADME, Microsome; details: CD1, mouse, pooled liver microsomes, read-out: Stabilty
# Histone deacetylase 9, sequence (Q9UKV0 whole entry): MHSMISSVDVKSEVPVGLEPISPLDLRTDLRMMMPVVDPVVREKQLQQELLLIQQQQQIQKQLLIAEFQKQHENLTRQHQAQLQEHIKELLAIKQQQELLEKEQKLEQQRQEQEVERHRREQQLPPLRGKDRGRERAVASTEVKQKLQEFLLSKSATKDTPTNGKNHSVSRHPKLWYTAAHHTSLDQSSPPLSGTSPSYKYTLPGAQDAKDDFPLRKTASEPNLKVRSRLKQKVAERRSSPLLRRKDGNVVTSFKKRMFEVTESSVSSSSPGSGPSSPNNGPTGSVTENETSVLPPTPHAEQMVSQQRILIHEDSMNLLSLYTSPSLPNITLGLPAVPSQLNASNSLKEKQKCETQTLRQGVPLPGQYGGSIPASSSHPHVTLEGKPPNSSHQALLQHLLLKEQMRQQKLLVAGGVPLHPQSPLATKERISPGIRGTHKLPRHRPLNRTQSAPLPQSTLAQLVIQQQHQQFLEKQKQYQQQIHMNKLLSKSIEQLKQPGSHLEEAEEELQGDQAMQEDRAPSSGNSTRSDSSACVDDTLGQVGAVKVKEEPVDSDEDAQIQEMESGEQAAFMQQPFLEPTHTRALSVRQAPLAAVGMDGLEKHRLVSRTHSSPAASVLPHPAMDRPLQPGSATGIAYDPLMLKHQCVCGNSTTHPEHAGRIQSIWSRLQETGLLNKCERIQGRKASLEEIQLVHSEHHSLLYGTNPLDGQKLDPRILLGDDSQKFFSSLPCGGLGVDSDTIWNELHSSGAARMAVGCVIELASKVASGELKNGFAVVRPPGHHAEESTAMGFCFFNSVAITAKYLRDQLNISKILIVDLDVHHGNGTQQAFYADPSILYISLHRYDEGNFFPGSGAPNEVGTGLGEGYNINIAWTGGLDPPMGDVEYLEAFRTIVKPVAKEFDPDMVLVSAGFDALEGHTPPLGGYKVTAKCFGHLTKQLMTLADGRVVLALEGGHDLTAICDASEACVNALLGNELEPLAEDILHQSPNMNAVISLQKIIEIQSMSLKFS
smiles,measurement,setting,value
NC(=O)c1ccc2c(c1)CCCN2Cc1ccc(C(=O)NO)cc1,Activity,[1],Non-Toxic
same,inhibition,[2],Active
same,half-life,[3],> 6.67 h
same,Activity,Mus musculus,Active
same,Tmax,[4],0.25 h
same,fraction unbound,[5],0.241
same,fraction unbound,[6],0.142
same,IC50,Histone deacetylase 9,650 nM
same,IC50,[7],1370 nM
same,half-life,[8],1.48 h
same,remaining at 1 h,[9],56%
